Target: T1, 41O1_SusD-like (uncultured Bacteroides sp., UniProt Z9V4V4YR65)
T1 construct: mature protein without predicted lipoprotein signal peptide, N-terminal 6-His tag (pET-28a(+)), E. coli BL21(DE3), codon-optimized gene, 57 kDa, monomer fraction used
T1 sequence (Z9V4V4YR65 22-505): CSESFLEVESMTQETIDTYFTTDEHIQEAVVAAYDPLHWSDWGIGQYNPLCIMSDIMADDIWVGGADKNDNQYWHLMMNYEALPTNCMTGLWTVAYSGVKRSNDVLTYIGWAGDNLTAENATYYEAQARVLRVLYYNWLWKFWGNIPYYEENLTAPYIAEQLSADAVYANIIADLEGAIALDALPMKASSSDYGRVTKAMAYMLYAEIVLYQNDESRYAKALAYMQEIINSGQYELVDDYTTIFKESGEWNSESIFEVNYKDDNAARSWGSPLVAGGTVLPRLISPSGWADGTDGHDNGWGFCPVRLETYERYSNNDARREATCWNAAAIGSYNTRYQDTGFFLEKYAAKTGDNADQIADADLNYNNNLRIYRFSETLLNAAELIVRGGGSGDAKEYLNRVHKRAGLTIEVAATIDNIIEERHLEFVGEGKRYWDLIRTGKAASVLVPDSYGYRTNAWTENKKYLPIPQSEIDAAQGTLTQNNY
Assay: thermal shift, Tycho NT.[…] intrinsic fluorescence
Format: binding
Details: 0.5% (w/v) ligand, 10 µM protein, 20 mM Tris-HCl, 150 mM NaCl, pH 7.4

∆T°C	SMILES
1.2 °C	OC[C@H]1O[C@@H](O[C@H]2[C@H](O)[C@@H](O)[C@H](O[C@H]3[C@H](O)[C@@H](O)C(O)O[C@@H]3CO)O[C@@H]2CO)[C@H](O)[C@@H](O)[C@@H]1O (some centres unmarked) [Cellotriose]
4.7 °C	OC[C@H]1O[C@@H](O[C@@H]2[C@@H](O)[C@H](O[C@H]3[C@H](O)[C@@H](CO)OC(O)[C@@H]3O)O[C@H](CO)[C@H]2O)[C@H](O)[C@@H](O)[C@@H]1O (some centres unmarked) [Laminaritriose]

— publication PMC11351036, “Biochemical characterization of a SusD-like protein involved in β-1,3-glucan utilization by an uncultured cow rumen Bacteroides” (mSphere, 2024)
